In patent US11667552B2, “Silver ion biocide delivery system” (priority 2018, dated 2023):

Legend:
[1] = Silver ion concentration in effluent of water passed through a packed bed of silver material
From the text: In this method, water is passed through a bed of silver chloride which releases silver chloride into the water stream as it flows through the bed.

[2] = Source text: Another method of releasing silver ion in a water stream is the use of metal oxides, carbonates, and salts containing silver. These metal salts may include, but are not limited to, metal oxides, metal halides, or metal salts containing silver, and/or metallic silver, or a combination, mixture or alloy of metals containing silver.
Certain embodiments can be designed with internal design elements to compensate for decreasing volume of material as it is used during operation, without the need to use springs and associated hardware.

| silver ion in effluent from the AgCl bed ([1]; typical, depends on material morphology, temperature, pH) | Max Theoretical Conc (ug salt/L) [2] | theoretical solubility limit [2] | Structure (SMILES) | Effluent Conc. Range Packed Bed (ug Ag^+/l) [1] |
| --- | --- | --- | --- | --- |
| – | – | – | [Br][Ag] [Silver Bromide] | 5 to 100 µg/L |
| about 100 μg/l | 1,900 ug/l | about 3 mg/l | [Cl][Ag] [Silver Chloride] | 200 to 800 µg/L |
